Source: patent publication US8530680B2, “System and method for controlling growth of microorganisms with brominated furanones” (Syracuse University, priority 2008, dated 2013)

Key:
[1] = system: Trametes versicolor strain TV57MAD277; test: Fungal growth on MEA plates with furanone; format: cell-based; design: key to growth on plate, TV57MAD277: −: No growth was observed; +: normal growth was seen; details: for growth on plate, TV57MAD277: 60 μg/mL, 7 days at 30° C.; for growth inhibition test, inhibitory concentration, TV57MAD277: tested at 1, 5, 30, 60 μg/mL, 7 days
Protocol: (§1) This Example examines the effect of brominated furanones on the growth of fungi associated with damage to building material. Six fungal strains were the subject of these experiments; Gloeophyllum trabeum (strains GT598 and GT599), Chaetomium globosum (wildtype strain and CG572), and Trametes versicolor (strains TV7B2-59 and TV57MAD277). The species were developed on 2% Malt-Extract Agar (MEA) plates and stored inverted at 4° C. The stocks were refreshed by streaking new plates every two months.
(§2) The brominated and non-brominated furanones were added to MAE agar plates at different concentrations. The brominated furanones were dissolved in either ethanol (“EtOH”) or methanol (“MeOH”) as stock solutions, as shown in Table 5. The non-brominated furanones were purchased from Sigma (St. Louis, Mo.). The furanone stocks were stored at 4° C.
(§3) MAE agar plates containing the same amounts of ethanol/methanol were also prepared as negative controls to eliminate any solvent effects. The plates were prepared using either 90 mm or 60 mm petri dishes and were stored inverted at 4° C. until use.
(§4) Different concentrations of furanones were studied to compare their antifungal activities. The plates were inoculated with the six fungal strains using a platinum loop and were incubated upside down at 30° C. for 7 days to monitor the growth. The initial screening was performed using a single 60 μg/mL furanone concentration.

[2] = system: Gloeophyllum trabeum strain GT599; test: Fungal growth on MEA plates with furanone; format: cell-based; design: key to growth on plate, GT599: −: No growth was observed; +: normal growth was seen; details: for growth on plate, GT599: 60 μg/mL, 7 days at 30° C.; for growth inhibition test, inhibitory concentration, GT599: tested at 1, 5, 30, 60 μg/mL, 7 days
Protocol: as §1, §2, §3, §4

[3] = system: extracellular AI-2 activities of E. coli; test: AI-2 bioluminescence assay (V. harveyi BB170 reporter, E. coli supernatants); format: cell-based; details: 60 μg/mL, E. coli culture 8 hours, supernatant on V. harveyi BB170
Protocol: To explore if brominated furanones have an interaction with quorum-sensing based on AI-2, a bioluminescence assay was conducted. Specifically, to examine whether the novel BFs have any inhibitory effects on universal QS signal AI-2, the bioluminescence of the reporter Vibrio harveyi (“V. harveyi”) strain BB170 was used as an indicator of AI-2 activities.
The E. coli strains RP437 [thr-1(Am) leuB6 his-4 metF159(Am) eda-50 rpsL1356 thi-1 ara-14 mtl-1 xyl-5 tonA31 tsx-78 lacY1 F-] and quorum-sensing mutant BW25113 ΔLuxS [ΔluxS::kan^r lacI^q rrnB3 ΔlacZ4787 hsdR514 Δ(araBAD)567 Δ (rhaBAD)568 rph-1] were routinely grown at 37° C. with shaking at 200 rpm in LB medium containing 10 g/L NaCl, 5 g/L yeast extract and 10 g/L tryptone. […]
The reporter strain V. harveyi BB170 was grown in AB medium at 30° C. for 16 hours. […] The subcultures were incubated at 30° C. and the bioluminescence was measured every hour as an indicator of AI-2 activity using a luminometer (Model 20/20m Turner BioSystems, Inc., Sunnyvale, Calif.). The colony-forming units (CFUs) of V. harveyi strain BB170 were counted after spreading the cell cultures on LM agar plates containing 10 g/L tryptone, 5 g/L yeast extract, 20 g/L NaCl and 15 g/L agar plates and incubating at 30° C. for 24 hours.
It was previously known that the V. harveyi BB170 strain produces luminescence in response to AI-2 but not in response to homoserine lactones (AHLs) as a result of a mutation in the AHL sensor gene. At low cell densities, the basal level of AI-2 will not trigger significant production of luminescence in V. harveyi BB170; however, at high cell densities, the extracellular AI-2 concentration will reach a certain threshold and induce the bioluminescence of V. harveyi. […]

C. albicans = C. albicans viability assay based on colony-forming unit (CFU) counting; format: cell-based, Candida albicans; details: 60 μg/mL, 6 hours in 0.85% NaCl buffer
Protocol: To further examine the effect of brominated furanones on fungal growth and understand whether BFs are fungicidal agents to C. albicans, BF1 was used as the representative compound in a viability assay based on colony-forming unit (“CFU”) counting. An overnight culture of C. albicans was sub-cultured in 100 mL of SD medium to an initial OD600 of 0.005 and was grown for 24 hours. The cells were then harvested by centrifugation at 4,500 rpm for 5 minutes at room temperature and washed twice with 0.85% NaCl buffer. Then the cells were resuspended in 0.85% NaCl buffer and supplemented with 0, or 60 μg/mL BF1, BF8, BF9, BF10, BF11, BF12, or BF14 to an OD600 of 2.0 using 17×100-mm polystyrene test tubes (Fisher Scientific). After incubation at 30° C. for 6 hours with shaking at 200 rpm, the treated cells were spread on Yeast Extract Peptone Dextrose (YPD) plates containing 20 g/L peptone, 10 g/L yeast extract, 20 g/L dextrose and 15 g/L agar. The colony-forming units (CFUs) on the plates were counted after 24 hours of incubation at 30° C. to evaluate the killing of C. albicans by furanones. Duplicate samples for each furanone were tested and five agar plates were counted for each sample.

CCCCC1=C(Br)/C(=C/Br)OC1=O [BF1, 4-bromo-5Z-(bromomethylene)-3-butylfuran-2-one]
growth on plate, TV57MAD277 [1]: −
growth inhibition test, inhibitory concentration, TV57MAD277 [1]: 5 µg/mL
growth on plate, GT599 [2]: −
growth inhibition test, inhibitory concentration, GT599 [2]: 30 µg/mL

CC1=C(Br)/C(=C/Br)OC1=O [BF8, 4-bromo-5Z-(bromomethylene)-3-methylfuran-2-one]
reduction of extracellular AI-2 activity [3]: 72.9±1.0%
growth on plate, TV57MAD277 [1]: −
growth inhibition test, inhibitory concentration, TV57MAD277 [1]: 30 µg/mL
reduction of CFU (C. albicans): 50%
growth on plate, GT599 [2]: −
growth inhibition test, inhibitory concentration, GT599 [2]: 5 µg/mL

CC1=CC(=C(Br)Br)OC1=O [BF9, 5-(dibromomethylene)-3-methylfuran-2-one]
reduction of extracellular AI-2 activity [3]: 42.2±0.3%
growth on plate, TV57MAD277 [1]: −
growth inhibition test, inhibitory concentration, TV57MAD277 [1]: 5 µg/mL
growth on plate, GT599 [2]: −
growth inhibition test, inhibitory concentration, GT599 [2]: 60 µg/mL

O=C1OC(=C(Br)Br)C=C1C(Br)Br [BF10, 3-(dibromomethyl)-5-(dibromomethylene)furan-2-one]
reduction of extracellular AI-2 activity [3]: 31.0±5.1%
growth on plate, TV57MAD277 [1]: −
growth inhibition test, inhibitory concentration, TV57MAD277 [1]: 5 µg/mL
reduction of CFU (C. albicans): 100%
growth on plate, GT599 [2]: −
growth inhibition test, inhibitory concentration, GT599 [2]: 30 µg/mL
